# Values of other authors, collected in patent publication US20110020252A1, “METHOD OF LONG LASTING HUMAN SKIN TANNING” (priority 2010, published 2011).
# Tested on: gram-positive cocci (including methicillin-resistant Staphylococcus aureus-MSRA), some gram-negative organisms, Legionella, many mycobacterium and some fungi
# Conditions: cited from earlier work
smiles,measurement,value
CO[C@H]1/C=C/O[C@@]2(C)Oc3c(C)c(O)c4c(O)c(c(/C=N/N5CCN(C)CC5)c(O)c4c3C2=O)NC(=O)/C(C)=C\C=C\[C@H](C)[C@H](O)[C@@H](C)[C@@H](O)[C@@H](C)[C@H](OC(C)=O)[C@@H]1C [Rifampin],antimicrobial activity,good activity
